Molecular target: human RORγt ligand binding domain (RORγt LBD) (Homo sapiens (Human), UniProt P51449)
Assay: RORγt ThermoFluor assay (thermal shift, binding affinity Kd)
Settings: read-out: ThermoFluor Assay, Kd

Sequence of human RORγt ligand binding domain (RORγt LBD) (P51449 other isoform, or with tags, fused parts or gaps): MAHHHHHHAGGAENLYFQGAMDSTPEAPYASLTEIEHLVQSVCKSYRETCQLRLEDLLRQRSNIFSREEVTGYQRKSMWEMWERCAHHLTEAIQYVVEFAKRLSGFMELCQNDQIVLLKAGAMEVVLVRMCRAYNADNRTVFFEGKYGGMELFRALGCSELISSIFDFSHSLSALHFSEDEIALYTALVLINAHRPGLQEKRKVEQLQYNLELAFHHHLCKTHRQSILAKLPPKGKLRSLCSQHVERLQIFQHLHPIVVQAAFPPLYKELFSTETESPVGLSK

| Kd | Compound |
| --- | --- |
| 2.9 µM | COc1nc2ccc(C(O)(c3cnc(C)n3C)c3cnc(C)n3C)cc2c(Cl)c1OCC1CCCN1C (centres unmarked) [Example 52, {4-Chloro-2-methoxy-3-[(1-methylpyrrolidin-2-yl)methoxy]quinolin-6-yl}[bis(1,2-dimethyl-1H-imidazol-5-yl)]methanol] |

Same assay, conditions: read-out: ThermoFluor ® Assay, Kd

| Kd | Compound |
| --- | --- |
| 5.1 µM | COc1nc2ccc(C(O)(c3ccc(C)nc3C)c3cnnn3C)cc2c(Cl)c1C(=O)N1CCCC1 (centres unmarked) [Example 151, [4-Chloro-2-methoxy-3-(pyrrolidin-1-ylcarbonyl)quinolin-6-yl](2,6-dimethylpyridin-3-yl)(1-methyl-1H-1,2,3-triazol-5-yl)methanol] |

Molecular target: human RORγt LBD fused to the DNA binding domain of the GAL4 protein (Homo sapiens (Human), UniProt P51449)
Sequence (P51449 258-518): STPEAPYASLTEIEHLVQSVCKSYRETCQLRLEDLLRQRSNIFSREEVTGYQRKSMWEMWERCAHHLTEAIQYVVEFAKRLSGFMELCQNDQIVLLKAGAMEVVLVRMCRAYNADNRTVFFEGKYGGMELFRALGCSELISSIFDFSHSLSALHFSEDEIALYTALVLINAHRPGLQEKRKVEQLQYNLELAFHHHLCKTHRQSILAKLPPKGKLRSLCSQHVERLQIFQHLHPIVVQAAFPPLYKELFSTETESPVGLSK
Assay: RORγt (LBD) reporter assay in HEK293T cells
Assay type: cell-based
Design: RORγt (LBD) Reporter Assay, % inhibition: dose or concentration left out as unconfirmed
Settings: not given

| RORγt (LBD) Reporter Assay, % inhibition | Compound |
| --- | --- |
| 76% | COc1nc2ccc(C(O)(c3ccc(C)nc3C)c3cnnn3C)cc2c(Cl)c1C1CCCC1 (single isomer, unassigned) [Example 136b, (4-Chloro-3-cyclopentyl-2-methoxyquinolin-6-yl)(2,6-dimethylpyridin-3-yl)(1-methyl-1H-1,2,3-triazol-5-yl)methanol] |
| 77% | COc1nc2ccc(C(O)(c3ccc(C)nc3C)c3cnnn3C)cc2c(Cl)c1CC(F)(F)F (single isomer, unassigned) [Example 143b, [4-Chloro-2-methoxy-3-(2,2,2-trifluoroethyl)quinolin-6-yl](2,6-dimethylpyridin-3-yl)(1-methyl-1H-1,2,3-triazol-5-yl)methanol] |
| 90% | COc1nc2ccc(C(O)(c3ccc(C)nc3C)c3cnnn3C)cc2c(Cl)c1CC(C)C (single isomer, unassigned) [Example 133b, (4-Chloro-3-isobutyl-2-methoxyquinolin-6-yl)(2,6-dimethylpyridin-3-yl)(1-methyl-1H-1,2,3-triazol-5-yl)methanol] |
| 98% | COc1nc2ccc(C(O)(c3ccc(C)nc3C)c3cnnn3C)cc2c(Cl)c1CC(C)C (single isomer, unassigned) [Example 133c, (4-Chloro-3-isobutyl-2-methoxyquinolin-6-yl)(2,6-dimethylpyridin-3-yl)(1-methyl-1H-1,2,3-triazol-5-yl)methanol] |

Same assay, conditions: @ 6 μM

| Compound | RORγt (LBD) Reporter Assay, % inhibition @ 6 μM |
| --- | --- |
| COc1nc2ccc(C(O)(c3cncn3C)C3CCN(C(C)=O)CC3)cc2c(Cl)c1CC1CCOCC1 (single isomer, unassigned) [Example 5c, 1-(4-((4-Chloro-2-methoxy-3-((tetrahydro-2H-pyran-4-yl)methyl)quinolin-6-yl)(hydroxy)(1-methyl-1H-imidazol-5-yl)methyl)piperidin-1-yl)ethanone] | 36% |
| COc1nc2ccc(C(O)(c3ccc(C)nc3C)c3cnnn3C)cc2c(Cl)c1OCC1CC1 (single isomer, unassigned) [Example 68c, [4-Chloro-3-(cyclopropylmethoxy)-2-methoxyquinolin-6-yl](2,6-dimethylpyridin-3-yl)(1-methyl-1H-1,2,3-triazol-5-yl)methanol] | 87% |
| COc1nc2ccc(C(O)(c3ccc(C)nc3C)c3cnnn3C)cc2c(Cl)c1C (single isomer, unassigned) [Example 12c, (4-Chloro-2-methoxy-3-methylquinolin-6-yl)(2,6-dimethylpyridin-3-yl)(1-methyl-1H-1,2,3-triazol-5-yl)methanol] | 93% |
| COc1nc2ccc(C(O)(c3ccc(C)nc3C)c3cnnn3C)cc2c(Cl)c1OC1CCOCC1 (single isomer, unassigned) [Example 69b, [4-Chloro-2-methoxy-3-(tetrahydro-2H-pyran-4-yloxy)quinolin-6-yl](2,6-dimethylpyridin-3-yl)(1-methyl-1H-1,2,3-triazol-5-yl)methanol] | 37% |
| COc1nc2ccc(C(O)(c3ccc(C)nc3C)c3cnnn3C)cc2c(Cl)c1CC1CCC(F)(F)CC1 (single isomer, unassigned) [Example 1c, (4-Chloro-3-((4,4-difluorocyclohexyl)methyl)-2-methoxyquinolin-6-yl)(2,6-dimethylpyridin-3-yl)(1-methyl-1H-1,2,3-triazol-5-yl)methanol] | 66% |
| COc1nc2ccc(C(O)(c3ccc(C)nc3C)c3cnnn3C)cc2c(Cl)c1OCC1CC1 (single isomer, unassigned) [Example 68b, [4-Chloro-3-(cyclopropylmethoxy)-2-methoxyquinolin-6-yl](2,6-dimethylpyridin-3-yl)(1-methyl-1H-1,2,3-triazol-5-yl)methanol] | 54% |

Results, then the compound that gave them:

| RORγt (LBD) Reporter Assay, % inhibition @ 6 μM | Compound |
| --- | --- |
| 6% | COc1nc2ccc(C(O)(c3ccc(C)nc3C)c3cnnn3C)cc2c(Cl)c1CN1CCC(F)CC1 (single isomer, unassigned) [Example 108b, (4-Chloro-3-((4-fluoropiperidin-1-yl)methyl)-2-methoxyquinolin-6-yl)(2,6-dimethylpyridin-3-yl)(1-methyl-1H-1,2,3-triazol-5-yl)methanol] |
| 96% | COc1nc2ccc(C(O)(c3ccc(C(F)(F)F)nc3)c3cncn3C)cc2c(Cl)c1CN1CCC(C(F)(F)F)CC1 (single isomer, unassigned) [Example 112c, (4-Chloro-2-methoxy-3-((4-(trifluoromethyl)piperidin-1-yl)methyl)quinolin-6-yl)(1-methyl-1H-imidazol-5-yl)(6-(trifluoromethyl)pyridin-3-yl)methanol] |
| −15% | COc1nc2ccc(C(O)(c3ccc(C)nc3C)c3cnnn3C)cc2c(Cl)c1OCc1nccs1 (single isomer, unassigned) [Example 73b, [4-Chloro-2-methoxy-3-(1,3-thiazol-2-ylmethoxy)quinolin-6-yl](2,6-dimethylpyridin-3-yl)(1-methyl-1H-1,2,3-triazol-5-yl)methanol] |
| 30% | COCCOc1c(OC)nc2ccc(C(O)(c3ccc(C(F)(F)F)nc3)c3cncn3C)cc2c1Cl (single isomer, unassigned) [Example 79b, [4-Chloro-2-methoxy-3-(2-methoxyethoxy)quinolin-6-yl](1-methyl-1H-imidazol-5-yl)[6-(trifluoromethyl)pyridin-3-yl]methanol] |
| 14% | COc1nc2ccc(C(O)(c3ccc(C)nc3C)c3cnnn3C)cc2c(Cl)c1CN1CCC(F)CC1 (single isomer, unassigned) [Example 108c, (4-Chloro-3-((4-fluoropiperidin-1-yl)methyl)-2-methoxyquinolin-6-yl)(2,6-dimethylpyridin-3-yl)(1-methyl-1H-1,2,3-triazol-5-yl)methanol] |
| 53% | COc1nc2ccc(C(O)(c3ccc(C)nc3C)c3cnnn3C)cc2c(Cl)c1OCC1CC1(F)F (single isomer, unassigned) [Example 72b, {4-Chloro-3-[(2,2-difluorocyclopropyl)methoxy]-2-methoxyquinolin-6-yl}(2,6-dimethylpyridin-3-yl)(1-methyl-1H-1,2,3-triazol-5-yl)methanol] |

Same assay, conditions: HEK-293T, read-out: RORγt (LBD) Reporter Assay, % inhibition @ 6 μM, @ 6 μM

| Compound | inhibition at 6 µM |
| --- | --- |
| COc1nc2ccc(C(O)(c3ccc(C)nc3C)c3cnnn3C)cc2c(Cl)c1OCC1CC1 (centres unmarked) [Example 68a, [4-Chloro-3-(cyclopropylmethoxy)-2-methoxyquinolin-6-yl](2,6-dimethylpyridin-3-yl)(1-methyl-1H-1,2,3-triazol-5-yl)methanol] | 83% |
| COc1nc2ccc(C(O)(c3ccc(C)nc3C)c3cnnn3C)cc2c(Cl)c1OCc1ncccn1 (single isomer, unassigned) [Example 66b, [4-Chloro-2-methoxy-3-(pyrimidin-2-ylmethoxy)quinolin-6-yl](2,6-dimethylpyridin-3-yl)(1-methyl-1H-1,2,3-triazol-5-yl)methanol] | -129% |
| COc1nc2ccc(C(O)(c3ccc(C)nc3C)c3cnnn3C)cc2c(Cl)c1OC1CCOCC1 (centres unmarked) [Example 69a, [4-Chloro-2-methoxy-3-(tetrahydro-2H-pyran-4-yloxy)quinolin-6-yl](2,6-dimethylpyridin-3-yl)(1-methyl-1H-1,2,3-triazol-5-yl)methanol] | 57% |
| COc1nc2ccc(C(O)(c3ccc(C)nc3C)c3cnnn3C)cc2c(Cl)c1OCC1CC1(F)F (centres unmarked) [Example 72a, {4-Chloro-3-[(2,2-difluorocyclopropyl)methoxy]-2-methoxyquinolin-6-yl}(2,6-dimethylpyridin-3-yl)(1-methyl-1H-1,2,3-triazol-5-yl)methanol] | 85% |
| COc1nc2ccc(C(O)(c3ccc(C)nc3C)c3cnnn3C)cc2c(Cl)c1OCc1ncccn1 (centres unmarked) [Example 66a, [4-Chloro-2-methoxy-3-(pyrimidin-2-ylmethoxy)quinolin-6-yl](2,6-dimethylpyridin-3-yl)(1-methyl-1H-1,2,3-triazol-5-yl)methanol] | -112% |
| COc1nc2ccc(C(O)(c3ccc(C)nc3C)c3cnnn3C)cc2c(Cl)c1CC1CC1 (centres unmarked) [Example 14a, (4-Chloro-3-(cyclopropylmethyl)-2-methoxyquinolin-6-yl)(2,6-dimethylpyridin-3-yl)(1-methyl-1H-1,2,3-triazol-5-yl)methanol] | 99% |

More lines, now with the values ahead:

| inhibition at 6 µM | Compound |
| --- | --- |
| 101% | COc1nc2ccc(C(O)(c3ccc(C)nc3C)c3cnnn3C)cc2c(Cl)c1CN1CCC(C(F)(F)F)CC1 (centres unmarked) [Example 103a, (4-Chloro-2-methoxy-3-((4-(trifluoromethyl)piperidin-1-yl)methyl)quinolin-6-yl)(2,6-dimethylpyridin-3-yl)(1-methyl-1H-1,2,3-triazol-5-yl)methanol] |
| 38% | COc1nc2ccc(C(O)(c3ccc(C)nc3C)c3cnnn3C)cc2c(Cl)c1CN1CCC(F)(F)CC1 (single isomer, unassigned) [Example 107b, (4-Chloro-3-((4,4-difluoropiperidin-1-yl)methyl)-2-methoxyquinolin-6-yl)(2,6-dimethylpyridin-3-yl)(1-methyl-1H-1,2,3-triazol-5-yl)methanol] |
